In one series the target is T1, BRC4–RAD51 interaction (Homo sapiens, UniProt Q06609).
T1 construct: purchased Creative Biomart (RAD51); Life Technologies (BRC4 peptide)
T1 sequence (Q06609 1-339): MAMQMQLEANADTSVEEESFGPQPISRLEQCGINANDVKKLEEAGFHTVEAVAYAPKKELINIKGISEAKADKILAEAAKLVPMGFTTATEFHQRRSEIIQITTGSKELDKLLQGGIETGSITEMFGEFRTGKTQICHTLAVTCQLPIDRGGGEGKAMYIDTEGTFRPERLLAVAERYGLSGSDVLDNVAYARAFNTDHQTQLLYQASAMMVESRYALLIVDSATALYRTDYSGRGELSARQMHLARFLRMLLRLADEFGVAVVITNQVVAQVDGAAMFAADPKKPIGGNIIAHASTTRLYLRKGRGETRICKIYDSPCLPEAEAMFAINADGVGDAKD
Briefly: Competitive biochemical ELISA assay (biotinylated BRC4 peptide vs RAD51). The class given is binding. As to the method: To investigate the mechanism of action of the new dihydroquinolone pyrazoline derivatives, different biological assays were performed. As a primary screening, the ability of compounds 5d–57d to inhibit RAD51-BRCA2 interaction was investigated with a competitive biochemical ELISA assay against the parent compound 4d (Table 1). This assay is effective in evaluating the ability of new molecules to compete with BRC4 to bind to RAD51.[30] […] 18d–21d, 23d, 25d, 30d, and 31d were active at micromolar range, all very similar to the initial hit. […] The replacement of the aromatic ring A in combination with the substitution of the pyrazoline nitrogen with either propionyl or acetyl chain yielded compounds 33d–51d. […] As expected for PPI disruptors, the SARs of the new series of dihydroquinolone pyrazoline were rather complex to rationalize, with many cliffs and spikes that were difficult to understand. […] Accordingly, 4d, 12d, 18d, 20d–23d, 30d, 31d, 33d–36d, 39d, 45d, and 49d were submitted to cell-based study (Table 2).
Competitive ELISA screening assay using biotinylated BRC4 peptide to disrupt the BRC4–RAD51 interaction was performed by modifying the method described by Rajendra et al.[33] BRC4-biotinylated peptide (N-term biotin-[…] from Life Technologies) was used to coat 384-well plates (Nunc). After washing with PBS containing 0.05% Tween-20 (PBST) and blocking with the solution BSA 1% /PBST, overnight hybridization with human RAD51 protein (NP_002866 Creative Biomart, NY) was performed. Test compounds were added in dose response from 0.01 to 100 μM in triplicate with constant DMSO 1%. Antibody raised against RAD51 (Millipore) and HRP-secondary antibody staining to develop the 3,3′,5,5′-tetramethylbenzidine signal (Sigma) quenched with 1 M HCl was used as the assay readout. Colorimetric measure was read on a Victor5 (PerkinElmer) plate reader. BRC4 and Rad51 were included in the assay as positive control. Results were analyzed by using GraphPad software.
On the technique in general: ELISA stands for enzyme-linked immunosorbent assay.

The test system of another series is BxPC3 cells. Briefly: Cell viability assay (CellTiter-Glo), association with olaparib. The class given is cell-based, human. To be noted: BxPC3; for olaparib association (increase of antiproliferative effect of olaparib): one or two doses in the range of the ELISA EC50, concentration not given. The source says: (§1) Our working hypothesis is that compounds disrupting RAD51-BRCA2 interaction should affect HR repair and increase the efficacy of PARPi in treating breast, ovarian, and pancreatic cancer. For its clinical relevance, pancreatic adenocarcinoma was selected as our final model for cell-based experiments, and BxPC3 cells were selected for a straightforward comparison with the previously reported triazole derivatives.[30],[31] BxPC3 is derived from a human adenocarcinoma that expresses fully functional BRCA2.[38] As shown in Table 2 and according to the rationale of our hypothesis, our preliminary screening consisted of verifying the efficacy of compounds in inhibiting cell HR and/or in increasing the antiproliferative effect of olaparib. […] HR activity was assessed by evaluating the recombination rate between two transfected plasmids, using a commercially available assay. […] As for the emissucinic acid-containing compounds (4d, 12d, 18d, 20d–23d, 30d, 31d), one of the reasons for their lower potency in cells might be the general poor permeability, likely related to the ionizable acid moiety. […] We then characterized 35d in additional biophysical and cell-based experiments.
Cell viability was assessed with the CellTiter-Glo luminescent cell viability assay from Promega. For this experiment, 1 × 10^4 cells in 200 μL of culture medium were seeded into each well of a 96-multiwell white body plate and allowed to adhere overnight. After 72 h incubation in the presence of olaparib (10 μM) and the RAD51-BRCA2 disruptors alone or in combination, the plate was allowed to equilibrate at room temperature for 30 min and the CellTiter-Glo reactive was directly added to each well. The plate was kept on a shaker for 10 min to induce cell lysis, and its luminescence was measured with a Fluoroskan Ascent FL reader (Labsystems).
On the technique in general: In ATP-based viability assays light output follows the ATP content of the culture.

In series [1] the test system is homologous recombination in BxPC3 cells. Description: Homologous recombination assay (two-plasmid recombination, real-time PCR). In kind it is cell-based, human. To be noted: for HR inhibition (in words): BxPC3, one or two doses in the range of the ELISA EC50, NDD = not dose-dependent.
From the text: as §1
Homologous recombination (HR) was assessed by using a commercially available assay (Norgen). This assay is based on cell transfection with two plasmids that, upon cell entry, recombine. The efficiency of HR can be assessed by real-time PCR, using primer mixtures included in the assay kit. Different primer mixtures allow one to discriminate between the original plasmid backbones and their recombination product.
BxPC3 cells (2 × 10^5 per well) were seeded in a 24-well plate and allowed to adhere overnight. Co-transfection with the two plasmids was performed in Lipofectamine 2000 (Invitrogen) according to the manufacturer’s instructions. During transfection (5 h), cells were exposed to different doses of RAD51-BRCA2 disruptors, dissolved in RPMI in the presence of 0.6% DMSO. After washing with PBS, cells were harvested, and DNA was isolated using Illustra Tissue and Cell Genomic Prep Mini Spin kit (GE Healthcare). Sample concentration was measured using an ONDA Nano Genius photometer. The efficiency of HR was assessed by real-time PCR, using 25 ng of template, the primer mixtures included in the assay kit and following the protocol indicated by the manufacturer. Data analysis was based on the ΔΔCt method: [recombination product/backbone plasmids]^treated versus [recombination product/backbone plasmids]^control.
In general terms: In qPCR the cycle at which signal appears reflects the starting amount.

The nature of series [2]: Solubility (as observed in cell culture media / stated). To be noted: cell culture media. The class given is physicochemical.
Where [3] appears, read: Table 2, compounds selected for cell-based study, read-out: EC50 ELISA.
The mark [4] stands for this setting: competition with BRC4 for RAD51, triplicate, ± standard deviation, NA = not active, racemic mixtures unless enantiomer named, read-out: EC50 (μM) on ELISA assay.

We go through 12 compounds from article PMC7997579, “Synthetic Lethality in Pancreatic Cancer: Discovery of a New RAD51-BRCA2 Small Molecule Disruptor That Inhibits Homologous Recombination and Synergizes with Olaparib” (Journal of Medicinal Chemistry, 2020).

Where two headings read alike, the source gives them in different places.

Regarding `O=C(O)CCC(=O)N1N=C(c2c(-c3ccccc3)c3cc(Cl)ccc3[nH]c2=O)CC1c1ccc(-c2ccc(Br)cc2)cc1` (stereo not drawn) [Compound 20d], the concentration for a half-maximal effect (EC50) on BRC4–RAD51 interaction (setting [3]) and at BRC4–RAD51 interaction (setting [4]) was 20 ± 2 µM each time. Also, in the series with BxPC3 cells, the “olaparib association (increase of antiproliferative effect of olaparib)” value was “olaparib association = not present”.

As for `CC(=O)N1N=C(c2c(-c3ccccc3)c3cc(Cl)ccc3[nH]c2=O)CC1c1ccc(Cl)cc1` (stereo not drawn) [Compound 36d, 3-(1-Acetyl-5-(4-chlorophenyl)-4,5-dihydro-1H-pyrazol-3-yl)-6-chloro-4-phenylquinolin-2(1H)-one], the concentration for a half-maximal effect (EC50) on BRC4–RAD51 interaction (setting [3]) and at BRC4–RAD51 interaction (setting [4]) was 10 ± 0.7 µM in each case. Further, the inhibition at 10 µM in series [1] (Homo sapiens, BXPC-3, 10 μM, BxPC3, 5 h during plasmid transfection) is 24%. For the same compound, the “olaparib association (increase of antiproliferative effect of olaparib)” value in the series with BxPC3 cells is “olaparib association = not present”.

Turning to `CC(=O)N1N=C(c2c(-c3ccccc3)c3cc(Cl)ccc3[nH]c2=O)CC1c1ccc2c(ccn2C)c1` (stereo not drawn) [Compound 45d, 3-(1-Acetyl-5-(1-methyl-1H-indol-5-yl)-4,5-dihydro-1H-pyrazol-3-yl)-6-chloro-4-phenylquinolin-2(1H)-one], the concentration for a half-maximal effect (EC50) at BRC4–RAD51 interaction (setting [3]) and on BRC4–RAD51 interaction (setting [4]) was 18 ± 1 µM throughout. Besides, in series [1], the “HR inhibition (in words)” value is given as “HR inhibition = not present”.

As for `CCCn1ncc2cc(C3CC(c4c(-c5ccccc5)c5cc(Cl)ccc5[nH]c4=O)=NN3C(C)=O)ccc21` (stereo not drawn) [Compound 49d, 3-(1-Acetyl-5-(1-propyl-1H-indazol-5-yl)-4,5-dihydro-1H-pyrazol-3-yl)-6-chloro-4-phenylquinolin-2(1H)-one], the EC50 at BRC4–RAD51 interaction (setting [3]) and at BRC4–RAD51 interaction (setting [4]) was 0.95 ± 0.05 µM each time. Further, the “HR inhibition (in words)” value in series [1] was “HR inhibition = not present”. Besides, in the series with BxPC3 cells, the “olaparib association (increase of antiproliferative effect of olaparib)” value is recorded as “olaparib association = not present”.

As to `Cn1ccc2cc(C3CC(c4c(-c5ccccc5)c5cc(Cl)ccc5[nH]c4=O)=NN3C(=O)CCC(=O)O)ccc21` (stereo not drawn) [Compound 22d, 4-(3-(6-Chloro-2-oxo-4-phenyl-1,2-dihydroquinolin-3-yl)-5-(1-methyl-1H-indol-5-yl)-4,5-dihydro-1H-pyrazol-1-yl)-4-oxobutanoic Acid], the half-maximal effective concentration (EC50) on BRC4–RAD51 interaction (setting [3]) and at BRC4–RAD51 interaction (setting [4]) was 2 ± 0.5 µM throughout. Moreover, the “HR inhibition (in words)” value in series [1] is reported as “HR inhibition = not present”. In addition, the olaparib association result in the series with BxPC3 cells (at 5 μM) is on record as “olaparib association = not present at 5 μM”.

Consider `COc1ccc(-c2ccc(C3CC(c4c(-c5ccccc5)c5cc(Cl)ccc5[nH]c4=O)=NN3C(=O)CCC(=O)O)cc2)cc1` (stereo not drawn) [Compound 21d, 4-(3-(6-Chloro-2-oxo-4-phenyl-1,2-dihydroquinolin-3-yl)-5-(4′-methoxy-[1,1′-biphenyl]-4-yl)-4,5-dihydro-1H-pyrazol-1-yl)-4-oxobutanoic Acid], for which the EC50 on BRC4–RAD51 interaction (setting [3]) and at BRC4–RAD51 interaction (setting [4]) was 20 ± 4 µM each time. Moreover, the “solubility in cell culture media” value in series [2] was “poor solubility”.

In the case of `CCn1ccc2cc(C3CC(c4c(-c5ccccc5)c5cc(Cl)ccc5[nH]c4=O)=NN3C(=O)CCC(=O)O)ccc21` (stereo not drawn) [Compound 23d, 4-(3-(6-Chloro-2-oxo-4-phenyl-1,2-dihydroquinolin-3-yl)-5-(1-ethyl-1H-indol-5-yl)-4,5-dihydro-1H-pyrazol-1-yl)-4-oxobutanoic Acid], the 50% effective concentration (EC50) on BRC4–RAD51 interaction (setting [3]) and on BRC4–RAD51 interaction (setting [4]) was 10 ± 2 µM throughout. Moreover, the “olaparib association (increase of antiproliferative effect of olaparib)” value in the series with BxPC3 cells was “olaparib association = not present”.

`O=C(O)CCC(=O)N1N=C(c2c(-c3ccccc3)c3cc(Cl)ccc3[nH]c2=O)CC1c1ccc(F)cc1` (stereo not drawn) [Compound 4d, 4-(3-(6-Chloro-2-oxo-4-phenyl-1,2-dihydroquinolin-3-yl)-5-(4-fluorophenyl)-4,5-dihydro-1H-pyrazol-1-yl)-4-oxobutanoic Acid]: the EC50 at BRC4–RAD51 interaction (setting [3]) and at BRC4–RAD51 interaction (setting [4]) was 16 ± 4 µM throughout. In addition, the inhibition at 40 µM in series [1] (Homo sapiens, BXPC-3, 40 μM, BxPC3, 5 h during plasmid transfection) turned out to be 10%.

For the compound `O=C(O)CCC(=O)N1N=C(c2c(-c3ccccc3)c3cc(Cl)ccc3[nH]c2=O)CC1c1ccc(-c2ccc(F)cc2)cc1` (stereo not drawn) [Compound 18d, 4-(3-(6-Chloro-2-oxo-4-phenyl-1,2-dihydroquinolin-3-yl)-5-(4′-fluoro-[1,1′-biphenyl]-4-yl)-4,5-dihydro-1H-pyrazol-1-yl)-4-oxobutanoic Acid], the EC50 on BRC4–RAD51 interaction (setting [3]) and on BRC4–RAD51 interaction (setting [4]) was 13 ± 1 µM in each case. Besides, the “olaparib association (increase of antiproliferative effect of olaparib)” value with BxPC3 cells is given as “olaparib association = not present”.

As to `CCC(=O)N1N=C(c2c(-c3ccccc3)c3cc(Cl)ccc3[nH]c2=O)CC1c1ccc(Cl)cc1` (stereo not drawn) [Compound 33d, 6-Chloro-3-(5-(4-chlorophenyl)-1-propionyl-4,5-dihydro-1H-pyrazol-3-yl)-4-phenylquinolin-2(1H)-one], the EC50 at BRC4–RAD51 interaction (setting [3]) and at BRC4–RAD51 interaction (setting [4]) was 8 ± 2 µM throughout. For the same compound, in series [1], the “HR inhibition (in words)” value is recorded as “HR inhibition = not present”. Besides, in the series on BxPC3 cells, the “olaparib association (increase of antiproliferative effect of olaparib)” value was “olaparib association = not present”.

For `CCn1cc2cc(-c3ccc(C4CC(c5c(-c6ccccc6)c6cc(Cl)ccc6[nH]c5=O)=NN4C(=O)CCC(=O)O)cc3)ccc2n1` (stereo not drawn) [Compound 31d, 4-(3-(6-Chloro-2-oxo-4-phenyl-1,2-dihydroquinolin-3-yl)-5-(4-(2-ethyl-2H-indazol-5-yl)phenyl)-4,5-dihydro-1H-pyrazol-1-yl)-4-oxobutanoic Acid], the EC50 at BRC4–RAD51 interaction (setting [3]) and at BRC4–RAD51 interaction (setting [4]) was 17 ± 4 µM in each case. In series [1], the “HR inhibition (in words)” value was “HR inhibition = NDD ^b”. Further, the olaparib association result with BxPC3 cells (at 20 μM) is given as “olaparib association = present at 20 μM”.

With `O=C(O)CCC(=O)N1N=C(c2c(-c3ccccc3)c3cc(Cl)ccc3[nH]c2=O)CC1c1ccc(Br)cc1` (stereo not drawn) [Compound 12d, 4-(5-(4-Bromophenyl)-3-(6-chloro-2-oxo-4-phenyl-1,2-dihydroquinolin-3-yl)-4,5-dihydro-1H-pyrazol-1-yl)-4-oxobutanoic Acid], the EC50 on BRC4–RAD51 interaction (setting [3]) and on BRC4–RAD51 interaction (setting [4]) was 16 ± 2 µM each time. The “HR inhibition (in words)” value in series [1] is reported as “HR inhibition = not present”. In addition, the “olaparib association (increase of antiproliferative effect of olaparib)” value with BxPC3 cells is “olaparib association = not present”.

As a reminder, the EC50 is the concentration at which the effect is half-maximal. One may read the inhibition as the share of the control response that was lost under treatment.
